According to patent publication US20090326008A1, “NF-kappa B Inhibitor” (priority 2006, published 2009):

Test system: COX-2 gene expression
Test: Effects of test compounds on COX-2 gene expression in gastric cancer cell line MKN-45 (real-time PCR)
Format: cell-based, human
Details: MKN-45 cells, test compound 1 μM, 16 hours, vs DMSO control = 100%, mean of triplicate
Description: The human gastric cancer cell line MKN-45 obtained from JCRB (Japanese Collection of Research Bioresources) was cultured in Iscove's Modified Dulbecco's Medium (product of GIBCO) containing 10% fetal calf serum for 24 hours using a 6-well plate and a 5% CO2 incubator (37° C., 5% CO2). Test compound solutions prepared by diluting each test compound with DMSO (solvent) to a final concentration of 1 μM, and the same amount of DMSO as a control solution (containing no test compound) were added to the wells of the 6-well plate, and the cells were cultured in a CO2 incubator (37° C., 5% CO2) for 16 hours.
The cells were recovered, and Total RNA was prepared from the cells using Trizole reagent (product of Invitrogen) according to the standard method. Real-time PCR was performed using TaqManO Gene Expression Assays for human COX-2 (product of Applied Biosystems), and the amount of COX-2 mRNA in each test-compound-treated cell were determined. […]
PCR was performed according to the manufacturer's instructions for TaqMan® Gene Expression Assays (product of Applied Biosystems). […] The amount of each mRNA was determined from the calibration curve using the ABI PRISM 7000 Sequence Detection System. […]

## COc1ccc(CC2SC(=S)NC2=O)c2c1N(CCC(C)C)C(=O)CC2 (stereo not shown) [Test Compound 965]
  COX-2 gene expression inhibition (%): >20%
